Read-outs that look alike come from different tables or passages of the source.
Key:
[1] = target: T1, full length (1-55) HIV-1 NCp7 (Human immunodeficiency virus type 1 group M subtype B, UniProt P12493); assay: Electromobility Shift Assay (EMSA), competition for ssDNA binding; settings: NCp7 300 nM, M13mp18 ssDNA; positive = >25% inhibition at 100µM
T1 construct: recombinant full length (1-55) HIV-1 NCp7 proteins; made in house
Description: The assay used a recombinant full length (1-55) HIV-1 NCp7 proteins based on the NL4-3 sequence (GenBank accession number AF324493). The protein was expressed and purified as described in [Carteau, S., Gorelick, R. J. & Bushman, F. D. Coupled integration of human immunodeficiency virus type 1 cDNA ends by purified integrase in vitro: stimulation by the viral nucleocapsid protein. Journal of virology 73, 6670-6679 (1999)].
Competition for single-stranded (ss) DNA binding was realized by mixing 1 µL of serial dilutions of NC inhibitors (diluted in DMSO) with 44 µL of NCp7 (300 nM) in a reaction buffer (20 mM Tris-HCl pH 7.4, 2 mM MgCl2, 100 mM NaCl, 1 mM DTT). 5 µL of a 10 ng/µL (4 nM) solution of M13mp18 ssDNA (BayouBiolabs) were then added and the tubes were incubated for 25 minutes at 37 °C. The reaction was terminated by chilling the tubes on ice followed by the addition of 5 µL of a loading buffer (30% glycerol, 0.01% xylene cyanol, 10 mM Tris-HCl pH 7.4). Samples were then resolved on 25 cm-long, 1% (w/v) agarose gels (SeaKem LE Agarose, Lonza) in 0.5x TBE. Gels were run in a Sub-Cell GT cuvette (BioRad) for 18 h at room temperature at 3 V/cm, stained with SybrGold (Molecular Probes) and scanned for fluorescence using a Typhoon 8600 (GE Healthcare). The experiments were performed in triplicate. Competition efficiency was realized by measuring the relative distance in pixels between the unbound ssDNA control, the NCp7-bound ssDNA control and the bound ssDNA for each points of the titration with the ImageQuant software. The IC50 was estimated as the NC inhibitors concentrations for which the bound ssDNA migrated at 50% of the distance separating the bound from the unbound ssDNA.

NC(11-55) = NC(11-55) (Human immunodeficiency virus type 1, UniProt P12493); assay: NC inhibition assay (NC-induced cTAR DNA destabilization, fluorescence); format: biochemical, HIV-1; settings: for inhibition at 100 µM: single point screening, positive = >25% inhibition at 100µM
Description: The NC inhibition assay is based on the nucleic acid chaperone activity of the NC protein. NC destabilizes the secondary structure of cTAR DNA, the complementary sequence of the transactivation response element, which is involved in minus-strand DNA transfer during reverse transcription. In the assay, the cTAR sequence from the HIV-1 Mal strain (Bernacchi et al, J Mol Biol, 2002) is labeled with a dye (Alexa488 fluorophore) and a quencher 4-(4'-dimethylaminophenylazo)benzoic acid (Dabcyl) at its 5' and 3' ends, respectively. In the absence of destabilization, the close proximity of both cTAR ends results in a strong fluorescence quenching of the dye emission by the Dabcyl group. NC(11-55) added to cTAR at a ratio of 10 NC/cTAR melts the bottom of the cTAR stem, which increases the distance between the dye and the quencher and as a result increases the dye fluorescence signal [Shvadchak et al, (2009) Identification by high throughput screening of small compounds inhibiting the nucleic acid destabilization activity of the HIV-1 nucleocapsid protein. Biochimie, 916-923]. NCIs are expected to prevent the NC-induced destabilization of cTAR and thus reverse the NC-induced increase in the fluorescence of the labeled cTAR. The activity of the inhibitor is thus evaluated from the ratio of the fluorescence intensity observed in the presence of NC with the molecule to the one in the absence of the compound.
The doubly labelled cTAR DNA oligonucleotides (55nt) were synthesised and purified by IBA GmbH Nucleic Acids Product Supply (Göttingen, Germany). Extinction coefficient at 260 nm of 5.73 x 10^5 M^-1 cm^-1 was used to determine the concentration of cTAR.
The NC(11-55) peptide (Avilov et al, Antimicrob Agents Chemother, 2012) was synthesized by solid-phase peptide synthesis on a 433A synthesizer (ABI, Foster City, CA) as previously described [De Rocquigny H, (1991) First large scale chemical synthesis of the 72 amino acid HIV-1 nucleocapsid protein NCp7 in an active form. Biochem Biophys Res Commun., 1010-1018]. The peptide was stored lyophilized and was resuspended in water before use. The concentration of peptide was determined by using an extinction coefficient of 5.7 x 10^3 M^-1 cm^-1 at 280 nm. Next, 2.5 molar equivalents of ZnSO4 were added and pH was raised to its final value by adding buffer.
All experiments were performed at 20 °C in 25 mM Tris-HCl (pH 7.5), 30 mM NaCl, and 0.2 mM MgCl2. To evaluate the inhibition activity of compounds on NC-induced cTAR destabilization, cTAR DNA (0.1 µM) was preincubated with 1 µM NC(11-55) (molar ratio NC:cTAR = 10:1) for 15 min at room temperature before addition of compound. For single point screening, all compounds were tested at three final concentrations: 1 µM, 10 µM and 100 µM. For the IC50 determination, inhibition of NC-induced cTAR melting was monitored through addition of increasing concentrations of the selected molecules to the pre-formed NC(11-55)-cTAR complex. After the addition of compound, the mixture was incubated for 15 min at room temperature before the reading. The fluorescence signal was recorded with a plate reader Xenius (SAFAS Monaco) or Fluoromax 3 spectrofluorometer (Horiba Jobin-Yvon), and the excitation and emission wavelengths were 480 and 520 nm, respectively. The spectra were corrected for dilution, buffer fluorescence and screening effect (when it was required). In order to check the occurrence of aggregation, we performed additional reading of absorption with the plate reader Xenius (SAFAS Monaco) or Cary 4000 spectrophotometer (Agilent). […]

[2] = system: HIV-1 reference strain NL4-3; assay: BiCycle assay (MT-2 then TZM-bl cells); format: cell-based; settings: Human immunodeficiency virus 1, NL43, TZM-bl, read-out: BiCycle IC50 nM
Experimental: BiCycle Assay is cell based assay allowing the evaluation of the antiviral activity of HIV-1 inhibitors on the whole replication cycle of HIV-1. The assay consists in a first round of infection of the T-cell line MT-2 followed by infection of TZM-bl cells. MT-2 cells were seeded at a concentration of 50,000 cells/well in a 96-well plate and infected with the HIV-1 reference strain NL4-3 in presence of five-fold dilutions of the investigational compounds. After 72 hours, 50 µl of supernatant from each well, containing the virus produced in the first round of infection, were used to infect TZM-bl cells seeded in a 96-plate well at a concentration of 30,000 cells/well. Two days later, cells were lysed adding 40 µl of Glo Lysis Buffer (Promega) to each well for 5 minutes, then 40 µl of Brighy-Glo Luciferase Reagent (Promega) were added to each well for relative luminescence units (RLU) counting using Glo-Max Multi Detection System (Promega). RLU values from each well were elaborated using the GraphPad v5.0 software to calculate the IC50 of each compound.

[3] = system: Peripheral blood mononuclear cells (PBMC); format: cell-based; settings: human, 7 days
Experimental: Peripheral blood mononuclear cells (PBMC) obtained from healthy donors by separation over Ficoll-Hypaque (GEHealthear-Cat.# GEH17-1440-02) were suspended at 2x10^6 cells/mL in RPMI 1640 (Biowest-Cat.#L0501-500) supplemented with 10% of heat-inactivated sterile fetal bovine serum (Gibco-Cat.#10270-106), 2 mmol/l L-glutamine (Biowest-Cat.#X0550-100), 50 U/mL Penicillin-50 µg/mL Streptomycin (Biowest-Cat.#L0022-100), referred to as complete medium (CM). PBMC were supplemented with 5 µg/mL of phytohaemagglutinin (Sigma Aldr-Cat.#L1668) and cultured in 75 cm^2 flasks (Sarsted-Cat.#833.911.002) for 2 days at 37 °C in a humidified atmosphere with 5% CO2.
PBMC were then washed in CM, counted by trypan blue exclusion (Gibco-Cat. #15250-061), centrifuged and suspended in fresh CM supplemented with 20 IU/mL recombinant human IL-2 (Miltenyi Biotec-Cat.#130-097-748) and seeded in a 96-well-tissue culture plate (Sarsted-Ca#831.837) at the density of 5x10^5 cells/mL (or 1x10^5 cells in 200 µL final CM volume per well). Cells were left untreated (negative control) or treated with different concentrations of the compounds.
After 7 days of incubation cytotoxicity was determined using Promega's CellTiter 96(R) AQueous One Solution Cell Proliferation Assay (MTS assay) (Promega-Cat.#G3581) according to the manufacturer's instuctions. This is a colorimetric method for determining the number of viable cells in proliferation or cytotoxicity assays. The MTS tetrazolium compound is bioreduced by cells into a colored formazan product that is soluble in tissue culture medium. This conversion is presumably accomplished by NADPH or NADH produced by dehydrogenase enzymes in metabolically active cells.
Briefly, MTS solution was thawed at room temperature, or in a water bath at 37 °C and 40 µL of MTS solution was pipeted into each well of the 96-well assay plate containing the samples in 200 µL of culture medium and incubated at 37 °C, 5% CO2 for 4 hours. The optical density was read at 490 nm using a 96-well plate reader (Tecan Infinite F50) and TD50 (toxic dose 50%, dose killing 50% of the cells compared to untreated control) value was calculated by interpolation of the curve obtained by plotting dose against percent mortality and by using "Magellan data analysis software". CM alone plus MTS solution was used as a blank, and cell culture well without compound was used as a cellular control.

HeLa cells = assay: HeLa Proliferation assay (CellTiter Glo); format: cell-based; settings: 72 hours
Experimental: HeLa cells (ATCC® CCL2™) in DMEM (Dulbecco Modified Eagle's Medium) without phenol red, Thermo, 11880, USA + 10% FBS + 1X PenStrep + 1X Gln or HUVEC cells (ATCC® CRL1730™) in EBM-2 (Endothelial Growth Basal Medium, Lonza, CC3156) + EGM-2 SingleQuotsTMSupplements and Growth Factors (Lonza, CC4176) + 1X Penicyllin-Streptomycin (PenStrep, ThermoFisher) + 1X Glutamine, are plated in a 384 well plate (Thermo, 4334-11, USA) to a density of 2000 cells per well and let recover for four hours at 37 °C, 5% CO2 in a humidified atmosphere. After the recovery, compounds are transferred to assay plates as per compound preparation method. Assay plates are then incubated at 37 °C, 5% CO2 in a humidified atmosphere for 72 hours. Cell viability is measured by the CellTiter Glo (Promega, G8080, USA) as per manufacturer instruction.

[4] = cTAR DNA 0.1 µM, 1 µM NC(11-55), 20 °C, pH 7.5, read-out: NC inhibition IC50

Q: How did the EMSA screening results [1] turn out when `C[C@@H](NC(=O)c1nc(-c2ncccc2NC(=O)OC(C)(C)C)nc(O)c1O)C1CCCCC1` [Compound 42, tert-butyl (R)-(2-(4-((1-cyclohexylethyl)carbamoyl)-5,6-dihydroxypyrimidin-2-yl)pyridin-3-yl)carbamate] was run?
A: Its EMSA screening results is “Positive (A compound showing >25% inhibition when tested at 100µM concentration is considered as "positive")”.

Q: And the IC50 (NC(11-55); [4])?
A: Its IC50 is 14.5 µM.

Q: What about the inhibition at 100 µM (NC(11-55)) of the same molecule?
A: Its inhibition at 100 µM is greater than 25%.

Q: What about the IC50 [2] of the same molecule?
A: The IC50 was 1600 nM.

Q: Which results are given for `C[C@@H](NC(=O)c1nc(-c2ccc(N3CCN(C)CC3)cn2)nc(O)c1O)C1CCCCC1` [Compound 94, (R)-N-(1-cyclohexylethyl)-5,6-dihydroxy-2-(5-(4-methylpiperazin-1-yl)pyridin-2-yl)pyrimidine-4-carboxamide]?
A: Proliferation assay PBMC TD50 [3]: 740 nM; EMSA screening results [1]: Negative; IC50 (NC(11-55)): 18 µM; inhibition at 100 µM (NC(11-55)): > 25%

Q: Which EMSA screening results [1] does the source give for `C[C@@H](NC(=O)c1nc(-c2cc(CNCc3ccccc3)ccn2)nc(O)c1O)C1CCCCC1` [Compound 96, (R)-2-(4-((benzylamino)methyl)pyridin-2-yl)-N (1-cyclohexylethyl)-5,6-dihydroxypyrimidine-4-carboxamide] here?
A: The EMSA screening results was “Negative”.

Q: What about the inhibition at 100 µM (NC(11-55)) of the same molecule?
A: The inhibition at 100 µM was greater than 25%.

Q: Which results are given for `C[C@@H](NC(=O)c1nc(-c2ccc(NC(=O)c3cnco3)cn2)nc(O)c1O)C1CCCCC1` [Compound 82, (R)-N-(6-(4-((1-cyclohexylethyl)carbamoyl)-5,6-dihydroxypyrimidin-2-yl)pyridin-3-yl)oxazole-5-carboxamide]?
A: EMSA screening results [1]: Positive (A compound showing >25% inhibition when tested at 100µM concentration is considered as "positive"); IC50 (NC(11-55); [4]): 19.5 µM; inhibition at 100 µM (NC(11-55)): > 25%; Proliferation assay HELA TD50 (HeLa cells): 6.5308 µM

Q: `C[C@@H](NC(=O)c1nc(-c2cc([N+](=O)[O-])ccn2)nc(O)c1O)C1CCCCC1` [Compound 40, (R)-N-(1-cyclohexylethyl)-5,6-dihydroxy-2-(4-nitropyridin-2-yl)pyrimidine-4-carboxamide] was tested. Which EMSA screening results [1] did it give?
A: The EMSA screening results was “Positive (A compound showing >25% inhibition when tested at 100µM concentration is considered as "positive")”.

Q: And the IC50 (NC(11-55); [4])?
A: The IC50 was 6.35 µM.

Q: What about the inhibition at 100 µM (NC(11-55)) of the same molecule?
A: The inhibition at 100 µM was greater than 25%.

Q: With `O=C(NC1(C2CCCCC2)CC1)c1nc(-c2cc3ccccc3cn2)nc(O)c1O` [Compound 83, N-(1-cyclohexylcyclopropyl)-5,6-dihydroxy-2-(isoquinolin-3-yl)pyrimidine-4-carboxamide] as the molecule, how does the EMSA screening results [1] read?
A: Its EMSA screening results is “Positive (A compound showing >25% inhibition when tested at 100µM concentration is considered as "positive")”.

Q: And the inhibition at 100 µM (NC(11-55))?
A: Its inhibition at 100 µM is greater than 25%.

Q: How did the EMSA screening results [1] turn out when `CCNCc1ccnc(-c2nc(O)c(O)c(C(=O)N[C@H](C)C3CCCCC3)n2)c1` [Compound 95, (R)-N-(1-cyclohexylethyl)-2-(4-((ethylamino)methyl)pyridin-2-yl)-5,6-dihydroxypyrimidine-4-carboxamide] was run?
A: Its EMSA screening results is “Negative”.

Q: And the IC50 (NC(11-55); [4])?
A: Its IC50 is 28 µM.

Q: And the inhibition at 100 µM (NC(11-55))?
A: Its inhibition at 100 µM is greater than 25%.
